Measurements from the kinase profiling compilation of Christmann-Franck et al. (2016).

Legend:
Assay in all cases: radiometric filter-binding kinase assay, Kinase HotSpot
Settings in all cases: compound 0.5 µM; ATP 10 µM
CSNK1G1 (human) = CSNK1G1 (human) (UniProt Q9HCP0)
LTK (human) = LTK (human) (UniProt P29376)
CDK9 CCNT1 (human) = CDK9 CCNT1 (human) (UniProt P50750+O60563)
RPS6KA3 KD1 KD2 (human) = RPS6KA3 KD1 KD2 (human) (UniProt P51812)
BRSK1 (human) = BRSK1 (human) (UniProt Q8TDC3)
[1] = tested on: FLT4 (human), P35916 [Q890H]
PRKCA (human) = PRKCA (human) (UniProt P17252)
IGF1R (human) = IGF1R (human) (UniProt P08069)
PKN2 (human) = PKN2 (human) (UniProt Q16513)
ALK (human) = ALK (human) (UniProt Q9UM73)
VRK1 (human) = VRK1 (human) (UniProt Q99986)
SIK2 (human) = SIK2 (human) (UniProt Q9H0K1)
MST1R (human) = MST1R (human) (UniProt Q04912)
PIM2 (human) = PIM2 (human) (UniProt Q9P1W9)
AKT2 (human) = AKT2 (human) (UniProt P31751)
FES (human) = FES (human) (UniProt P07332)
NEK6 (human) = NEK6 (human) (UniProt Q9HC98)
STK16 (human) = STK16 (human) (UniProt O75716)
FGFR1 (human) = FGFR1 (human) (UniProt P11362)
MAP3K11 (human) = MAP3K11 (human) (UniProt Q16584)
PRKD3 (human) = PRKD3 (human) (UniProt O94806)
TAOK2 (human) = TAOK2 (human) (UniProt Q9UL54)
STK25 (human) = STK25 (human) (UniProt O00506)
CDK5 CDK5R1 p35 (human) = CDK5 CDK5R1 p35 (human) (UniProt Q00535+Q15078)
WEE1 (human) = WEE1 (human) (UniProt P30291)
TSSK1B (human) = TSSK1B (human) (UniProt Q9BXA7)
NEK3 (human) = NEK3 (human) (UniProt P51956)
MAP2K2 (human) = MAP2K2 (human) (UniProt P36507)
GSK3A (human) = GSK3A (human) (UniProt P49840)
GSG2 (human) = GSG2 (human) (UniProt Q8TF76)
PIM3 (human) = PIM3 (human) (UniProt Q86V86)
GRK6 (human) = GRK6 (human) (UniProt P43250)
TNK2 (human) = TNK2 (human) (UniProt Q07912)
MAPK13 (human) = MAPK13 (human) (UniProt O15264)
STK17A (human) = STK17A (human) (UniProt Q9UEE5)
ULK2 (human) = ULK2 (human) (UniProt Q8IYT8)
CDK6 CCND1 (human) = CDK6 CCND1 (human) (UniProt Q00534+P24385)
MAP2K1 (human) = MAP2K1 (human) (UniProt Q02750)
STK33 (human) = STK33 (human) (UniProt Q9BYT3)
NTRK2 (human) = NTRK2 (human) (UniProt Q16620)
RPS6KA5 KD2 (human) = RPS6KA5 KD2 (human) (UniProt O75582)
STK4 (human) = STK4 (human) (UniProt Q13043)

Chain of PKN2 (human) (Q16513 whole entry, looked up): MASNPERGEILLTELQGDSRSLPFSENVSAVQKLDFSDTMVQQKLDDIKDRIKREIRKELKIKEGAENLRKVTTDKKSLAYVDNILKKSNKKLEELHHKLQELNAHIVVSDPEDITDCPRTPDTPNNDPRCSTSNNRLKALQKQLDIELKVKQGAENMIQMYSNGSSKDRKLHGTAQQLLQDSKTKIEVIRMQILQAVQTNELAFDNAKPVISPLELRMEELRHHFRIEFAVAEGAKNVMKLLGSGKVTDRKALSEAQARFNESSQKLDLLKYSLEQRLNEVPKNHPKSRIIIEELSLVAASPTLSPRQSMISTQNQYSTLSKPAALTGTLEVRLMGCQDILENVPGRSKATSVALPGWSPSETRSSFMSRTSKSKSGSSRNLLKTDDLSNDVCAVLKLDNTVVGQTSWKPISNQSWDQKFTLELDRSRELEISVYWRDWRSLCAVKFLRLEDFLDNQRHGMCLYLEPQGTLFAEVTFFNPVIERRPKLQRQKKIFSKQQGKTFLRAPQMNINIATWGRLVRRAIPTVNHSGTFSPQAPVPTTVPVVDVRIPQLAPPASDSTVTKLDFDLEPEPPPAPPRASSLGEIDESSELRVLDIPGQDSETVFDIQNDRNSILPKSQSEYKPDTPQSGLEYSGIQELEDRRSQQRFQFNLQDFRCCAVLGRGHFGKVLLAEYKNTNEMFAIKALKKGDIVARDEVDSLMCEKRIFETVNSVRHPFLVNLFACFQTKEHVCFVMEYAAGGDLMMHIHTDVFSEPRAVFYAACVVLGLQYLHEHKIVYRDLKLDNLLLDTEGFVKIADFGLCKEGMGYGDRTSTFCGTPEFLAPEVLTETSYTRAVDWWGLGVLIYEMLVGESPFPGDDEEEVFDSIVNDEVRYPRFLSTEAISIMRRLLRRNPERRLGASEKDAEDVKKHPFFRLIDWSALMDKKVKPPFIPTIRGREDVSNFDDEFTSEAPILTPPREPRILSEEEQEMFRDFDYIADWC
Chain of STK17A (human) (Q9UEE5 whole entry, looked up): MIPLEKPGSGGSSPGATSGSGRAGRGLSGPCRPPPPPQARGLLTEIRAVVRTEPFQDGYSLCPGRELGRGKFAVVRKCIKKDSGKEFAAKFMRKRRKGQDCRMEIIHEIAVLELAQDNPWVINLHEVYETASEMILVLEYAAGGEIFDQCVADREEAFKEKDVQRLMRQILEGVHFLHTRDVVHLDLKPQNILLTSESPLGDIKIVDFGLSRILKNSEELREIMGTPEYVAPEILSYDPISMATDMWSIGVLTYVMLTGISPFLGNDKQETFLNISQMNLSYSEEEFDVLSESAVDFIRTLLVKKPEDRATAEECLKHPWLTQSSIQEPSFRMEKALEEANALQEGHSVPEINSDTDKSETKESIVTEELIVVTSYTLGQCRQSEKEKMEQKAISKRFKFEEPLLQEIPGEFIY
Chain of LTK (human) (P29376 whole entry, looked up): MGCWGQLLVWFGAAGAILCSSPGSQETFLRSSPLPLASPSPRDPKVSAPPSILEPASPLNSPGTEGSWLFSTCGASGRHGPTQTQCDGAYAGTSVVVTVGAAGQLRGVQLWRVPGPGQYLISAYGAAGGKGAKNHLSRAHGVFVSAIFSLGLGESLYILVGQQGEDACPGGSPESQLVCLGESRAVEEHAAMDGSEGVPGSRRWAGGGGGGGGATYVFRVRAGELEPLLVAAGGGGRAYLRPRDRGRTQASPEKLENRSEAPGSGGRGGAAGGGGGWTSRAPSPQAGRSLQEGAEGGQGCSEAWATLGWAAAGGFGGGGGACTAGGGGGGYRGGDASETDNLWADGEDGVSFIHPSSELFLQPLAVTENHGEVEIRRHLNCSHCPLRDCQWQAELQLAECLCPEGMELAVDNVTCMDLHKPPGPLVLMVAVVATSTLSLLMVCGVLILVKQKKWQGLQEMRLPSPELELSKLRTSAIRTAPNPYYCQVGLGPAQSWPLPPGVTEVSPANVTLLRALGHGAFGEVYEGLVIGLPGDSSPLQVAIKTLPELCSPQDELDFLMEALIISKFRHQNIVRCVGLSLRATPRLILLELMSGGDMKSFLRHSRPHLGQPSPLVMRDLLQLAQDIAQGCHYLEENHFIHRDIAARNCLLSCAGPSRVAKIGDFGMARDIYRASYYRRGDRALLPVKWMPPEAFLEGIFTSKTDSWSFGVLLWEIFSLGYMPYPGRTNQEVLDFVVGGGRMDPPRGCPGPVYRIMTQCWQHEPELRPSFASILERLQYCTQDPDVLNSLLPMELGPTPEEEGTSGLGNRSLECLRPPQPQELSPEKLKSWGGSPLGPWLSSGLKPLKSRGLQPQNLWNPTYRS
Chain of FGFR1 (human) (P11362 whole entry, looked up): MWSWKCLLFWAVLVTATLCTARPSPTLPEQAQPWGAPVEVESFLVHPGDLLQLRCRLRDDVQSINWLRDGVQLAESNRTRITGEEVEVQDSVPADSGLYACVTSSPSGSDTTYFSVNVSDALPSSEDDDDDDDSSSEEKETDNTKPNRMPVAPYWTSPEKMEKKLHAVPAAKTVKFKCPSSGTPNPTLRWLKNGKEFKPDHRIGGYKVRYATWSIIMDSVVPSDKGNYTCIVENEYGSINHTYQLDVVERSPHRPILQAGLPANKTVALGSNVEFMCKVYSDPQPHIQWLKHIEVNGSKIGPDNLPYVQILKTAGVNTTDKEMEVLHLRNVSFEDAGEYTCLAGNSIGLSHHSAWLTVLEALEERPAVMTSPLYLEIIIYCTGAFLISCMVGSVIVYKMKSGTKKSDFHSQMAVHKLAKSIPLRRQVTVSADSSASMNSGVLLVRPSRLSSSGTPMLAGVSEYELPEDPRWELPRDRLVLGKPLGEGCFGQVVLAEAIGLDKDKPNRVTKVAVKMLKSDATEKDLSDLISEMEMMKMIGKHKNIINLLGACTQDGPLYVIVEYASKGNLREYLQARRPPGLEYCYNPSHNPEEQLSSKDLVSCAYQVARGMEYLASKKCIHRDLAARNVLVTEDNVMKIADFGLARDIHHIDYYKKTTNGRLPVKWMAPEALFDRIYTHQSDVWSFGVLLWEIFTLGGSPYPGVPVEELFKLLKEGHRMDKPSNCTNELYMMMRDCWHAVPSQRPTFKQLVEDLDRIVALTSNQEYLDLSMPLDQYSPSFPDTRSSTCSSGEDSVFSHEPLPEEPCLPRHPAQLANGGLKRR
Chain of STK33 (human) (Q9BYT3 whole entry, looked up): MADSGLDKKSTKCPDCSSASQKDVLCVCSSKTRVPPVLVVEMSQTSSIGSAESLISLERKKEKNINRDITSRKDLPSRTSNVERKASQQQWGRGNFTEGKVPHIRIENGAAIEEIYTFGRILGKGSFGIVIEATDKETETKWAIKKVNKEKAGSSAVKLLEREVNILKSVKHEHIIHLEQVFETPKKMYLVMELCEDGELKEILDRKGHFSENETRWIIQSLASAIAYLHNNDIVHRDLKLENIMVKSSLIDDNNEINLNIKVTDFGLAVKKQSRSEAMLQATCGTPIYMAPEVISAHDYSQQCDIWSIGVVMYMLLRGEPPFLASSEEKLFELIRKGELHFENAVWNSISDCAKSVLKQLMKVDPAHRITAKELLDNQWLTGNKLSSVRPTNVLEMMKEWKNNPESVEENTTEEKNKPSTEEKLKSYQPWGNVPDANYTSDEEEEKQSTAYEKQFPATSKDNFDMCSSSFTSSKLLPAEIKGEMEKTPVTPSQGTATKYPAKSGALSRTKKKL
Chain of NTRK2 (human) (Q16620 whole entry, looked up): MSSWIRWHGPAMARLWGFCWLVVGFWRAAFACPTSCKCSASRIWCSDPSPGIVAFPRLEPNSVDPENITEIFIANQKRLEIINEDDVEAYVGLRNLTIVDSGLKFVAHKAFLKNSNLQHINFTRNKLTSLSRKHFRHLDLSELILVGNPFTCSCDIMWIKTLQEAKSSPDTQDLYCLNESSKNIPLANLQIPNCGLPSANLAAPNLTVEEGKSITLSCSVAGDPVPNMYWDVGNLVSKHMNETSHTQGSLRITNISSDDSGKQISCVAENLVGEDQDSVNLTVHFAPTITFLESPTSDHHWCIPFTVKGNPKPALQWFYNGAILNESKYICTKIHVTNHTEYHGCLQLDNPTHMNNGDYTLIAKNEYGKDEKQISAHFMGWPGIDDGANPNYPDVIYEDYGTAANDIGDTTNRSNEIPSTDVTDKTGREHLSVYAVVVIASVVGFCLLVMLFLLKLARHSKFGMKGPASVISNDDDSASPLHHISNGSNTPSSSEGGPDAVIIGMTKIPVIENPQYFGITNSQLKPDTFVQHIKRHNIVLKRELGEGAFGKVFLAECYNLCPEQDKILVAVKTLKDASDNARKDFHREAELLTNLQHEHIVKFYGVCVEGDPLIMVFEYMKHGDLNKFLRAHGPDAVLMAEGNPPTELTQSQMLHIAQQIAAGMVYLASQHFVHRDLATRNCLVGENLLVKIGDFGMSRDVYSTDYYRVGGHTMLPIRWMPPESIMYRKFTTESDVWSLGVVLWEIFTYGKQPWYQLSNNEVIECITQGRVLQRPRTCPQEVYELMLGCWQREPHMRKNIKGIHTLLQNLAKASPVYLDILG
Chain of STK16 (human) (O75716 whole entry, looked up): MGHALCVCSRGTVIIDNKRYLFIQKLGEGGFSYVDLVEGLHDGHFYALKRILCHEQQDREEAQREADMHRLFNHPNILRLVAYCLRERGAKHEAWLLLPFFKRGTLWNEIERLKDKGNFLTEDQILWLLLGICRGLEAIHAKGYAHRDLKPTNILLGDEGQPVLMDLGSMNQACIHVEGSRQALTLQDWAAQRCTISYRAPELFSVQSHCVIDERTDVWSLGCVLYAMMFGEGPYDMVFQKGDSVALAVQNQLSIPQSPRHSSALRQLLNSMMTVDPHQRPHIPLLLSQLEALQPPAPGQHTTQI
Chain of NEK6 (human) (Q9HC98 whole entry, looked up): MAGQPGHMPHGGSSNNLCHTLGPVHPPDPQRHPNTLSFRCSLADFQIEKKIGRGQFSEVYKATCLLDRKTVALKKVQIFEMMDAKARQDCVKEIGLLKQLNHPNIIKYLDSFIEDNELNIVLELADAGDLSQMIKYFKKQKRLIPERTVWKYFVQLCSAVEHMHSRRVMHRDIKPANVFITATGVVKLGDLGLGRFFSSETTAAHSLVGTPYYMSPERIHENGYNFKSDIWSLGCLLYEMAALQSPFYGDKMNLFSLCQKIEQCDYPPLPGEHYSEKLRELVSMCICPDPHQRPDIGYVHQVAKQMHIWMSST

SMILES | residual activity (CSNK1G1 (human)) [%] | residual activity (LTK (human)) [%] | residual activity (CDK9 CCNT1 (human)) [%] | residual activity [1] [%] | residual activity (PKN2 (human)) [%] | residual activity (ALK (human)) [%] | residual activity (VRK1 (human)) [%] | residual activity (FES (human)) [%] | residual activity (NEK6 (human)) [%] | residual activity (STK16 (human)) [%] | residual activity (FGFR1 (human)) [%] | residual activity (MAP3K11 (human)) [%] | residual activity (TAOK2 (human)) [%] | residual activity (STK25 (human)) [%] | residual activity (CDK5 CDK5R1 p35 (human)) [%] | residual activity (WEE1 (human)) [%] | residual activity (TSSK1B (human)) [%] | residual activity (NEK3 (human)) [%] | residual activity (GSG2 (human)) [%] | residual activity (PIM3 (human)) [%] | other results
Fc1ccc(-c2nc3n(c2-c2ccncc2)CCS3)cc1 | 86.6 | 102 | 94.9 | 112 | 96.3 | 124 | 86.8 | 104 | 98.7 | 106 | 93.4 | 95.7 | 95.7 | 104 | 97.8 | 92.2 | 119 | 96.9 | 104 | 105 | residual activity (RPS6KA3 KD1 KD2 (human)): 107%; residual activity (BRSK1 (human)): 93.9%; residual activity (PRKCA (human)): 113%; residual activity (IGF1R (human)): 106%; residual activity (SIK2 (human)): 108%; residual activity (MST1R (human)): 97.3%; residual activity (PIM2 (human)): 121%; residual activity (AKT2 (human)): 95.9%; residual activity (PRKD3 (human)): 88.2%; residual activity (MAP2K2 (human)): 106%; residual activity (GSK3A (human)): 116%; residual activity (GRK6 (human)): 103%; residual activity (TNK2 (human)): 98%; residual activity (MAPK13 (human)): 111%; residual activity (STK17A (human)): 99.4%; residual activity (ULK2 (human)): 106%; residual activity (CDK6 CCND1 (human)): 97%; residual activity (MAP2K1 (human)): 93.6%; residual activity (STK33 (human)): 96.5%; residual activity (NTRK2 (human)): 103%
CO[C@@H]1[C@H](N(C)C(=O)c2ccccc2)C[C@H]2O[C@]1(C)n1c3ccccc3c3c4c(c5c6ccccc6n2c5c31)C(=O)NC4 | 103 | 50.1 | 64.2 | 10.9 | 11.4 | 49.2 | 90.8 | 48.3 | 110 | 47.9 | 36.1 | 1.38 | 86.2 | 55 | 74.1 | 89.3 | 8.24 | 107 | 70.2 | 60.8 | residual activity (RPS6KA3 KD1 KD2 (human)): 3.19%; residual activity (RPS6KA5 KD2 (human)): 13.2%; residual activity (MST1R (human)): 101%; residual activity (STK4 (human)): 5.58%; residual activity (MAPK13 (human)): 104%; residual activity (STK17A (human)): 62.9%; residual activity (ULK2 (human)): 95.7%; residual activity (CDK6 CCND1 (human)): 96.5%; residual activity (MAP2K1 (human)): 109%; residual activity (STK33 (human)): 46.4%; residual activity (NTRK2 (human)): 12.8%
COc1ccc2c(c1)/C(=C/c1cnc[nH]1)C(O)=N2 | 106 | 93.6 | 67.4 | 66.4 | 90.8 | 112 | 91.2 | 97 | 98.2 | 76.2 | 73.2 | 61.6 | 81.8 | 86.2 | -0.369 | 94.2 | 101 | 87.8 | 72.2 | 99 | residual activity (RPS6KA5 KD2 (human)): 89.2%; residual activity (BRSK1 (human)): 47.1%; residual activity (PRKCA (human)): 91.3%; residual activity (IGF1R (human)): 94.4%; residual activity (SIK2 (human)): 100%; residual activity (PIM2 (human)): 97.2%; residual activity (AKT2 (human)): 106%; residual activity (PRKD3 (human)): 38%; residual activity (MAP2K2 (human)): 108%; residual activity (GSK3A (human)): 26.2%; residual activity (GRK6 (human)): 85.2%; residual activity (TNK2 (human)): 92.6%; residual activity (STK4 (human)): 5.67%; residual activity (MAPK13 (human)): 102%; residual activity (STK17A (human)): 42.3%; residual activity (ULK2 (human)): 97.7%; residual activity (CDK6 CCND1 (human)): 13.3%; residual activity (MAP2K1 (human)): 94.8%; residual activity (STK33 (human)): 74.7%; residual activity (NTRK2 (human)): 30.1%
